# Reference: ChEMBL document CHEMBL2203021, “The synthesis and biological evaluation of novel Danshensu-cysteine analog conjugates as cardiovascular-protective agents” (2012)
# Activity calls are given as the source filed them. The calls are words filed in the database; no cut-off is given here.
# Experiments:
# [1] = system: HUVEC; experiment: Inhibition of H2O2-induced cytotoxicity in HUVEC cells assessed as cell viability at 5 to 100 umol/L incubated 4 hrs prior to H2O2 challenge measured after 12 hrs by MTT assay; format: functional, cell-based; conditions: Homo sapiens
# [2] = system: HUVEC; experiment: Antiapoptotic activity in HUVEC cells assessed as reduction in H2O2-induced PARP level by Western blotting relative to control; format: functional, cell-based; conditions: Homo sapiens
# [3] = system: HUVEC; experiment: Antiapoptotic activity against H2O2-induced HUVEC cells assessed as reduction in total apoptotic cells at 5 umol/L after 4 hrs by annexin V-FITC/propidium iodide staining-based flow cytometry; format: functional, Homo sapiens; set-up: scale not given: the % may be the effect or the level left
# [4] = system: HUVEC; experiment: Antiapoptotic activity in HUVEC cells assessed as reduction in H2O2-induced Bax level by Western blotting relative to control; format: functional, cell-based; conditions: Homo sapiens
# [5] = system: HUVEC; experiment: Antiapoptotic activity in HUVEC cells assessed as […] in H2O2-induced pro-caspase-3 level by Western blotting; format: functional, cell-based; conditions: Homo sapiens
# [6] = system: HUVEC; experiment: Antioxidant activity in HUVEC cells assessed as […] in H2O2-induced GSH activity at 50 umol/L incubated 4 hrs prior to H2O2 challenge measured after 12 hrs; format: functional, cell-based; conditions: Homo sapiens
# [7] = system: HUVEC; experiment: Antioxidant activity against H2O2-induced lipid accumulation in HUVEC cells assessed as reduction in MDA level at 50 umol/L incubated 4 hrs prior to H2O2 challenge measured after 12 hrs; format: functional, cell-based; conditions: Homo sapiens
# [8] = system: HUVEC; experiment: Antiapoptotic activity against H2O2-induced HUVEC cells assessed as increase in Bcl-2 level by Western blotting relative to control; format: functional, cell-based; conditions: Homo sapiens
# [9] = system: HUVEC; experiment: Antiapoptotic activity against H2O2-induced HUVEC cells assessed as reduction in total apoptotic cells at 100 umol/L after 4 hrs by annexin V-FITC/propidium iodide staining-based flow cytometry; format: functional, Homo sapiens; set-up: scale not given: the % may be the effect or the level left
# [10] = system: HUVEC; experiment: Inhibition of H2O2-induced cytotoxicity in HUVEC cells assessed as LDH release at 50 umol/L incubated 4 hrs prior to H2O2 challenge measured after 12 hrs by LDH assay; format: functional, cell-based; conditions: Homo sapiens
# [11] = system: HUVEC; experiment: Antiapoptotic activity against H2O2-induced HUVEC cells assessed as reduction in total apoptotic cells at 50 umol/L after 4 hrs by annexin V-FITC/propidium iodide staining-based flow cytometry; format: functional, Homo sapiens; set-up: scale not given: the % may be the effect or the level left
# [12] = system: HUVEC; experiment: Antioxidant activity against H2O2-induced lipid accumulation in HUVEC cells assessed as reduction in MDA level incubated 4 hrs prior to H2O2 challenge measured after 12 hrs; format: functional, cell-based; conditions: Homo sapiens
# [13] = system: HUVEC; experiment: Antiapoptotic activity against H2O2-induced HUVEC cells assessed as reduction in late apoptotic cells after 4 hrs by annexin V-FITC/propidium iodide staining-based flow cytometry; format: functional, cell-based; conditions: Homo sapiens
# [14] = system: HUVEC; experiment: Antiapoptotic activity in HUVEC cells assessed as reduction in H2O2-induced p53 level by Western blotting relative to control; format: functional, cell-based; conditions: Homo sapiens
# [15] = system: HUVEC; experiment: Antioxidant activity against in HUVEC cells assessed as […] in H2O2-induced GSH activity incubated 4 hrs prior to H2O2 challenge measured after 12 hrs; format: functional, cell-based; conditions: Homo sapiens
# [16] = system: HUVEC; experiment: Antiapoptotic activity in HUVEC cells assessed as reduction in H2O2-induced nuclei-shrunk by Hoechst staining; format: functional, cell-based; conditions: Homo sapiens
# [17] = system: HUVEC; experiment: Antiapoptotic activity in HUVEC cells assessed as […] in H2O2-induced pro-caspase-9 level by Western blotting; format: functional, cell-based; conditions: Homo sapiens
# [18] = system: HUVEC; experiment: Antiapoptotic activity in HUVEC cells assessed as inhibition of H2O2-induced mitochondrial membrane potential reduction by JC-1 staining; format: functional, cell-based; conditions: Homo sapiens
# [19] = system: HUVEC; experiment: Antiapoptotic activity in HUVEC cells assessed as reduction in H2O2-induced nuclear condensation by hoechst staining; format: functional, cell-based; conditions: Homo sapiens
# [20] = system: HUVEC; experiment: Inhibition of H2O2-induced cytotoxicity in HUVEC cells assessed as LDH release incubated 4 hrs prior to H2O2 challenge measured after 12 hrs by LDH assay; format: functional, cell-based; conditions: Homo sapiens
# [21] = system: HUVEC; experiment: Antioxidant activity in HUVEC cells assessed as […] in H2O2-induced GSH activity at 5 mmol/L incubated 4 hrs prior to H2O2 challenge measured after 12 hrs; format: functional, cell-based; conditions: Homo sapiens
# [22] = system: HUVEC; experiment: Inhibition of H2O2-induced cytotoxicity in HUVEC cells assessed as LDH release at 5 mmol/L incubated 4 hrs prior to H2O2 challenge measured after 12 hrs by LDH assay; format: functional, cell-based; conditions: Homo sapiens
# [23] = system: HUVEC; experiment: Antioxidant activity against H2O2-induced lipid accumulation in HUVEC cells assessed as reduction in MDA level at 5 mmol/L incubated 4 hrs prior to H2O2 challenge measured after 12 hrs; format: functional, cell-based; conditions: Homo sapiens
# [24] = system: HUVEC; experiment: Inhibition of H2O2-induced cytotoxicity in HUVEC cells assessed as cell viability at 5 mmol/L incubated 4 hrs prior to H2O2 challenge measured after 12 hrs by MTT assay; format: functional, cell-based; conditions: Homo sapiens
smiles,measurement,setting,value
COC(=O)[C@@H](N)CSC(=O)CCc1ccc2c(c1)OCO2,Activity,[1],inactive
COC(=O)[C@H](CSCc1ccccc1)NC(=O)/C(=C/c1ccc(OC(C)=O)c(OC(C)=O)c1)OC(C)=O,Activity,[2],Dose-dependent effect
same,Activity,[3],20.1%
same,Activity,[4],Dose-dependent effect
same,Activity,[5],Dose-dependent effect
same,Activity,[6],Active
same,Activity,[7],Active
same,Activity,[8],Dose-dependent effect
same,Activity,[9],5.4%
same,inhibition,[10],Active
same,Activity,[11],9%
same,Activity,[12],Dose-dependent effect
same,Activity,[13],Dose-dependent effect
same,Activity,[14],Dose-dependent effect
same,inhibition,[1],Active
same,Activity,[15],Dose-dependent effect
same,Activity,[16],Dose-dependent effect
same,Activity,[17],Dose-dependent effect
same,Activity,[18],Dose-dependent effect
same,Activity,[19],Dose-dependent effect
same,inhibition,[20],Dose-dependent effect
COC(=O)[C@H](CSCc1ccccc1)NC(=O)/C(=C/c1ccc2c(c1)OCO2)OC(C)=O,inhibition,[1],inactive
COC(=O)[C@@H](N)CSC(=O)CCc1ccc(OC(C)=O)c(OC(C)=O)c1,Activity,[1],inactive
COC(=O)[C@H](CSC(=O)/C(=C/c1ccc(OC(C)=O)c(OC(C)=O)c1)OC(C)=O)NC(=O)OC(C)(C)C,Activity,[6],Active
same,Activity,[7],Active
same,inhibition,[10],Active
same,inhibition,[1],Active
COC(=O)[C@H](CSCc1ccccc1)NC(=O)CCc1ccc2c(c1)OCO2,inhibition,[1],inactive
CC(=O)N[C@@H](CS)C(=O)O,Activity,[21],Active
same,inhibition,[22],Active
same,Activity,[23],Active
same,inhibition,[24],Active
COC(=O)[C@@H](N)CSC(=O)/C(=C/c1ccc2c(c1)OCO2)OC(C)=O,inhibition,[1],Active
COC(=O)[C@H](CSCc1ccccc1)NC(=O)CCc1ccc(OC(C)=O)c(OC(C)=O)c1,Activity,[6],Active
same,Activity,[7],Active
same,inhibition,[10],Active
same,inhibition,[1],Active
COC(=O)[C@H](CSC(=O)CCc1ccc(OC(C)=O)c(OC(C)=O)c1)NC(=O)OC(C)(C)C,Activity,[1],inactive
COC(=O)[C@@H](N)CSC(=O)/C(=C/c1ccc(OC(C)=O)c(OC(C)=O)c1)OC(C)=O,inhibition,[1],Active
COC(=O)[C@H](CSC(=O)/C(=C/c1ccc2c(c1)OCO2)OC(C)=O)NC(=O)OC(C)(C)C,Activity,[6],Active
same,Activity,[7],Active
same,inhibition,[10],Active
same,inhibition,[1],Active
COC(=O)[C@H](CSC(=O)C(Cc1ccc(OC(C)=O)c(OC(C)=O)c1)OC(C)=O)NC(=O)OC(C)(C)C (stereo partly drawn),inhibition,[1],inactive
COC(=O)[C@H](CSCc1ccccc1)NC(=O)C(Cc1ccc2c(c1)OCO2)OC(C)=O (stereo partly drawn),inhibition,[1],inactive
COC(=O)[C@H](CSC(=O)C(Cc1ccc2c(c1)OCO2)OC(C)=O)NC(=O)OC(C)(C)C (stereo partly drawn),inhibition,[1],inactive
COC(=O)[C@H](CSC(=O)CCc1ccc2c(c1)OCO2)NC(=O)OC(C)(C)C,Activity,[1],inactive
COC(=O)[C@@H](N)CSC(=O)C(Cc1ccc2c(c1)OCO2)OC(C)=O (stereo partly drawn),inhibition,[1],Active
COC(=O)[C@H](CSCc1ccccc1)NC(=O)C(Cc1ccc(OC(C)=O)c(OC(C)=O)c1)OC(C)=O (stereo partly drawn),Activity,[6],Active
same,Activity,[7],Active
same,inhibition,[10],Active
same,inhibition,[1],Active
COC(=O)[C@@H](N)CSC(=O)C(Cc1ccc(OC(C)=O)c(OC(C)=O)c1)OC(C)=O (stereo partly drawn),inhibition,[1],inactive
